According to US20080268533A1, “Methods and Compositions Utilizing Myc and Gsk3Beta to Manipulate the Pluripotency of Embryonic Stem Cells” (University of Georgia Research Foundation, Inc., priority 2004, published 2008):
Residues, ends and D or L forms follow the SMILES beside them. *: point of attachment. Cbz = O=C(OCc1ccccc1)*

Tests used:
GSK3β [1] = assay: GSK3β nuclear localization in EBs after OA treatment (staining); assay type: cell-based, murine; conditions: OA added to EBs, short incubation; data not shown
Excerpt: A key issue relating to the understanding of self-renewal is determining how GSK3β activity is suppressed in ESCs but activated in cells committed to differentiate. […] The cytoplasmic localization of GSK3β in mESCs was corroborated by subcellular fractionation using hypotonic lysis (FIG. 3).
This mechanism accounts for the observed decline in phospho-S9 and activation of GSK3β that occurs during the early stages of differentiation. CA inhibits PP1 and PP2A in contrast to OA, which selectively targets PP2A. This implicated PP2A as a S9 phosphatase in this system. This is supported by experiments showing that PP2A complexes with GSK3 and c-myc in d2 EBs (FIG. 4C). […] While it is possible that nuclear GSK3β was degraded during OA treatment and nascent GSK3β retained in the cytoplasm, it is also likely that GSK3β is transported out of the nucleus in response to OA treatment since only short incubation periods were used and GSK3β is normally a stable protein. This would be consistent with a model where GSK3β localization is controlled by the phosphorylation status of S9. It is known that PP2A dephosphorylates S62 on c-myc, resulting in its degradation (Sears, (2004) Cell Cycle, 3(9):1133-7).

GSK3β^S9 phosphorylation = assay type: cell-based, murine; conditions: 6 hours, CA 2 nM, OA 2 nM
Description: MESCs and d2 EBs were treated for the short-term (6 hours) with phosphatase inhibitors of varying specificities.

BG01 cells = assay: LY 294002 induced definitive endoderm (DE) formation, Sox17 Q-PCR; assay type: cell-based, human; conditions: BG01 on matrigel in MEF-CM, 60 μM LY 294002, BIO approx. 0.1-5 μM, MeBIO approx. 1-5, 3-4 days, Sox17 mRNA by Q-PCR
Description: Q-PCT was performed using relative quantitation using SYBR Green chemistry on the Rotor Gene 3000 instrument (Corbett Research) and a two-step RT-PCR format. Primers were designed to lie over exon-exon boundaries or span introns of at least 800 bp when possible, as this has been empirically determined to eliminate amplification from contaminating genomic DNA.
Total RNA was isolated using RNeasy (Qiagen) and quantitated using RiboGreen (Molecular Probes). Reverse transcription from 350-500 ng of total RNA was carried out using the iScript reverse transcriptase kit (BioRad), which contains a mix of oligo-dT and random primers. Each 20 μL reaction was subsequently diluted up to 100 μL total volume and 3 μL was used in each 10 μL Q-PCR reaction containing 400 nM forward and reverse primers and 5 μL 2×SYBR Green master mix (Qiagen). Two step cycling parameters were used employing a 5 second denature at 85-94° C. (specifically selected according to the melting temp of the amplicon for each primer set) followed by a 45 second anneal/extend at 60° C. Fluorescence data was collected during the last 15 seconds of each extension phase. A three point, 10-fold dilution series was used to generate the standard curve for each run and cycle thresholds (Ct's) were converted to quantitative values based on this standard curve. The quantitated values for each sample were normalized to housekeeping gene performance and then average and standard deviations were calculated for triplicate samples. At the conclusion of PCR cycling, a melt curve analysis was performed to ascertain the specificity of the reaction. A single specific product was indicated by a single peak at the Tm appropriate for that PCR amplicon.
Both Cyclophilin G and GUS were used to calculate a normalization factor for all samples. The use of multiple HGs simultaneously reduces the variability inherent to the normalization process and increases the reliability of the relative gene expression values (Vandesompele et al., 2002, Genome Biol., 3:RESEARCH0034). […]

c-myc = c-myc protein stability assay with proteosome inhibitor (immunoblot); assay type: cell-based, mouse; conditions: EBs (−LIF), MG132 5 μM, 3 hours prior to harvesting
Description: Cells were lysed by incubating for one hour on ice in lysis buffer consisting of 50 mM Hepes pH 7.5, 1 mM EDTA, 1 mM EGTA, 250 mM NaCl, 10% glycerol, 0.1% Tween-20, 10 μg/ml TPCK, 50 μg/ml TLCK, 170 μg/ml PMSF, 0.5 mg/ml leupeptin, 0.7 mg/ml pepstatin and phosphatase inhibitor cocktail II (Calbiochem) with occasional vortexing/pipetting. Whole cell extracts (20-40 μg total protein) were separated by 10% SDS-PAGE, transferred to nitrocellulose membranes (BioRad), blocked with 3% BSA in TBSE (Tris HCl pH 7.5, 150 mM NaCl, 2 mM EDTA and 0.1% NP40) and probed with the indicated antibodies at 4° C. The following antibodies were used: anti-c-myc (N-262; Santa Cruz), anti-Oct4 (N-19; Santa Cruz), anti-tubulin (Serotech), anti-HDAC1 (Zymed), anti-Cdk2 (M2; Santa Cruz), anti-GSK3β (Transduction Laboratories). The anti-HDAC1 antibody detects both HDAC1 and HDAC2 and accordingly, a doublet is seen by immunoblot analysis. An antibody that recognizes the T58 phosphorylated form of c-myc (T58/S62, Cell Signaling Technology) was used to evaluate the status of c-myc^T58. […]
If so, it was predicted that c-myc would have enhanced stability. To test this possibility, the stability of c-myc was determined in undifferentiated ES cells relative to other cell types where its stability is in the order of 30 minutes or less (Hann & Eisenman, (1984) Mol. Cell. Biol., 4:2486-2497). […]

GSK3β [2] = target: T1, GSK3β (Mus musculus, UniProt Q9WV60); assay: GSK3β kinase assay on immunoprecipitate, MBP substrate; assay type: biochemical; conditions: day 6 EB lysates, inhibitor 3 μM in ethanol
T1 construct: endogenous in cells; host or cells: day 6 embryoid bodies derived from mouse ES cells (D3 / R1-EGFP)
Description: Cell lysate (300 μg total protein) was adjusted to 1 mg/ml with cell lysis buffer and tumbled with 3 μg of primary antibody for 3 hours at 4° C. 30 μL of protein A Sepharose beads were added and tumbled for a further 1 hour at 4° C. The beads were washed three times with 1 ml of cold lysis buffer and once with 1 ml of kinase buffer (50 mM Hepes pH 7.5, 10 mM MgCl2, 1 mM DTT, 2.5 mM EGTA and protease inhibitor cocktail II (Calbiochem)). Immune complexes bound to the PAS beads were resuspended in 30 μL of kinase buffer with or without the addition of GSK3β inhibitor II (3 μM in ethanol, Calbiochem) or ethanol and incubated at 30° C. for 20 minutes. 10 μCi of [γ-^32P] ATP and 5 μg of myelin basic protein (MBP, Upstate Biotech) was added and the reactions incubated at 30° C. for a further 20 minutes. Reactions were terminated by the addition of 2×SDS load buffer, heated at 95° C. for 2 minutes and resolved on a 12% SDS-polyacrylamide gel. Kinase activities were quantitated by phosphorimager analysis.
A common mechanism that triggers c-myc degradation is through its phosphorylation at threonine 58 (T58) by GSK3β (Hoang et al., (1995) Mol. Cell. Biol., 15:4031-4042; Sears et al., (2000) Genes Dev., 14:2501-2514; Gregory et al., (2003) J. Biol. Chem., 278:51606-51612). […]

T1 sequence (Q9WV60 whole entry): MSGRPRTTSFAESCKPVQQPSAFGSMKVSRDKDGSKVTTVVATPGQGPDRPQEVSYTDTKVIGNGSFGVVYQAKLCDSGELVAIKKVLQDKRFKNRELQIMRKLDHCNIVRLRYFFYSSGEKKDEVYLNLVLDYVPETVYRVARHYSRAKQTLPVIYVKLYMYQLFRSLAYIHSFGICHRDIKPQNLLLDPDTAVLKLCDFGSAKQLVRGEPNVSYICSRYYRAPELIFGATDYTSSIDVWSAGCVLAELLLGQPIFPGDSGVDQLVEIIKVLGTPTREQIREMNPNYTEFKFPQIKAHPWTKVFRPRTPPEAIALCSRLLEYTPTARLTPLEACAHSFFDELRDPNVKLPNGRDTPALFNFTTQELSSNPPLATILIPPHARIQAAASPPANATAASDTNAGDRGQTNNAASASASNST

C=C1[C@@H](O)[C@@H]2O[C@]3(CC[C@H](/C=C/[C@@H](C)[C@@H]4CC(C)=C[C@@]5(O[C@H](C[C@@](C)(O)C(=O)O)CC[C@H]5O)O4)O3)CC[C@H]2O[C@@H]1[C@@H](O)C[C@H](C)[C@H]1O[C@@]2(CCCCO2)CC[C@H]1C [okadaic acid]
GSK3β staining in the nucleus (GSK3β [1]): GSK3β staining in the nucleus disappeared | GSK3β S9 phosphorylation in d2 EBs (GSK3β^S9 phosphorylation): significantly increased S9 phosphorylation

CN1C(=O)/C(=C2\Nc3ccccc3\C2=N/O)c2ccc(Br)cc21 [MeBIO]
LY 294002 induced DE formation as determined by Sox17 expression (BG01 cells; listed as MeBio): but not MeBio, blocks LY 294002 induced DE formation | LY 294002 induced DE formation as determined by Sox17 expression (BG01 cells; listed as meBio): but not meBio, blocked LY 294002 induced DE formation

CC(C)C[C@@H](C=O)NC(=O)[C@H](CC(C)C)NC(=O)[C@H](CC(C)C)NC(=O)OCc1ccccc1 [MG132] (Cbz-Leu-Leu-Leu-aldehyde)
turnover of c-myc protein following LIF withdrawal (c-myc): blocked

COC[C@@H]([C@H](O)[C@H](O)C(=O)NCC[C@H](C)c1nc(/C=C/C[C@@H]2O[C@]3(C[C@@H](O)[C@@H]2C)O[C@H]([C@H](C[C@H](O)[C@H](C)[C@H](O)[C@H](C)/C=C(C)/C(C)=C/C=C/C(C)=C\C#N)OC)[C@H](OP(=O)(O)O)C3(C)C)co1)N(C)C [Calyculin A]
GSK3β S9 phosphorylation in d2 EBs (GSK3β^S9 phosphorylation): significantly increased S9 phosphorylation

Ic1cccc(CSc2nnc(-c3ccncc3)o2)c1 [GSK3β inhibitor II]
immunoprecipitated GSK3β kinase activity (GSK3β [2]): sensitive

O=C1Nc2cc(Br)ccc2/C1=C1/Nc2ccccc2/C1=N\O [BIO, 6-bromoindirubin-3′-oxime]
LY 294002 induced DE formation as determined by Sox17 expression (BG01 cells): blocks LY 294002 induced DE formation
